Test results taken from patent US8906930B2, “Quinazoline derivatives” (Merck Patent GmbH, priority 2009, dated 2014).

target: T1, Recombinant human HSP90α (Homo sapiens, UniProt P07900); assay: HSP90 radioligand filter binding test ([3H]17AAG competition); conditions: radioligand [3H]17AAG 0.08 μM; HSP90 1.5 μg/assay; 22° C., 30 min; read-out: HSP90 inhibition IC50
T1 construct: host or cells: E. coli
Description: The binding of geldanamycin or 17-allylamino-17-demethoxygeldanamycin (17AAG) to HSP90 and competitive inhibition thereof can be utilised in order to determine the inhibitory activity of the compounds according to the invention (Carreras et al. 2003, Chiosis et al. 2002).
In the specific case, a radioligand filter binding test is used. The radioligand used here is tritium-labelled 17-allylaminogeldanamycin, [3H]17AAG. This filter binding test allows a targeted search for inhibitors which interfere with the ATP binding site.
Recombinant human HSP90α (E. coli expressed, 95% purity);
[3H]17AAG (17-allylaminogeldanamycin, [allylamino-2,3-^3H. Specific activity: 1.11×10^12 Bq/mmol (Moravek, MT-1717);
HEPES filter buffer (50 mM HEPES, pH 7.0, 5 mM MgCl2, BSA 0.01%) Multiscreen FB (1 μm) filter plate (Millipore, MAFBNOB 50).
The 96-well microtitre filter plates are firstly irrigated and coated with 0.1% of polyethylenimine.
The test is carried out under the following conditions:
Reaction temperature 22° C.
Reaction time: 30 min., shaking at 800 rpm
50 mM HEPES HCl, pH 7.0, 5 mM MgCl2, 0.01% (w/v) of BSA
At the end of the reaction, the supernatant in the filter plate is removed by suction with the aid of a vacuum manifold (Multiscreen Separation System, Millipore), and the filter is washed twice.
The filter plates are then measured in a beta counter (Microbeta, Wallac) with scintillator (Microscint 20, Packard).
“% of control” is determined from the “counts per minutes” values, and the IC-50 value of a compound is calculated therefrom.

Structure (SMILES)	IC50 [nM]
CC(C)CNC(=O)C1(c2ccc3nc(N)nc(C(=O)N4Cc5ccccc5C4)c3c2)CCC1 [Compound A34, 1-[2-Amino-4-(isoindoline-2-carbonyl)quinazolin-6-yl]-N-isobutylcyclobutanecarboxamide]	10 to 1000
CNC(=O)C1(c2ccc3nc(N)nc(C(=O)N4Cc5ccccc5C4)c3c2)CCC1 [Compound A31, 1-[2-Amino-4-(isoindoline-2-carbonyl)quinazolin-6-yl]-N-methylcyclobutanecarboxamide]	10 to 1000
CC(C)(C)NC(=O)C(C)(C)c1ccc2nc(N)nc(C(=O)N3Cc4ccccc4C3)c2c1 [Compound A35, 2-[2-Amino-4-(isoindoline-2-carbonyl)quinazolin-6-yl]-N-tert-butyl-2-methylpropanamide]	10 to 1000
CC(C)(C)NC(=O)C1(c2ccc3nc(N)nc(C(=O)N4Cc5ccccc5C4)c3c2)CC1 [Compound A20, 1-[2-Amino-4-(isoindoline-2-carbonyl)quinazolin-6-yl]-N-tert-butylcyclopropanecarboxamide]	10 to 1000
CCOC(=O)C1(c2ccc3nc(N)nc(C(=O)N4Cc5ccccc5C4)c3c2)CC1 [Compound A56, Ethyl 1-[2-amino-4-(isoindoline-2-carbonyl)quinazolin-6-yl]cyclopropanecarboxylate]	10 to 1000
CN(C)C(=O)C1(c2ccc3nc(N)nc(C(=O)N4Cc5ccccc5C4)c3c2)CC1 [Compound A22, 1-[2-Amino-4-(isoindoline-2-carbonyl)quinazolin-6-yl]-N,N-dimethylcyclopropanecarboxamide]	1000 to 10000
NC(=O)C1(c2ccc3nc(N)nc(C(=O)N4Cc5ccccc5C4)c3c2)CCC1 [Compound A5, 1-[2-amino-4-(isoindoline-2-carbonyl)quinazolin-6-yl]cyclobutane-carboxamide]	10 to 1000
CN1CCN(Cc2ccc3nc(N)nc(C(=O)N4Cc5ccccc5C4)c3c2)CC1 [Compound A76, [2-amino-6-[(4-methylpiperazin-1-yl)methyl]quinazolin-4-yl]-isoindolin-2-ylmethanone]	1000 to 10000

The next lines start with the values.

IC50 [nM]	Structure (SMILES)
1000 to 10000	CCNC(=O)C(CCC(F)F)c1ccc2nc(N)nc(C(=O)N3Cc4ccccc4C3)c2c1 (stereo not drawn) [Compound A42, 2-[2-Amino-4-(isoindoline-2-carbonyl)quinazolin-6-yl]-N-ethyl-5,5-difluoropentanamide]
10 to 1000	CCNC(=O)C(CCC(C)C)c1ccc2nc(N)nc(C(=O)N3Cc4ccccc4C3)c2c1 (stereo not drawn) [Compound A45, 2-[2-Amino-4-(isoindoline-2-carbonyl)quinazolin-6-yl]-N-ethyl-5-methyl-hexanamide]
1000 to 10000	CCN(CC)C(=O)Cc1ccc2nc(N)nc(C(=O)N3Cc4ccccc4C3)c2c1 [Compound A8, 2-[2-amino-4-(isoindoline-2-carbonyl)quinazolin-6-yl]-N,N-diethylacetamide]
1000 to 10000	CC(C)(C(=O)NCCC#N)c1ccc2nc(N)nc(C(=O)N3Cc4ccccc4C3)c2c1 [Compound A40, 2-[2-Amino-4-(isoindoline-2-carbonyl)quinazolin-6-yl]-N-(2-cyanoethyl)-2-methylpropanamide]
1000 to 10000	CC(C)(C)NC(=O)Cc1ccc2nc(N)nc(C(=O)N3Cc4ccccc4C3)c2c1 [Compound A7, 2-[2-amino-4-(isoindoline-2-carbonyl)quinazolin-6-yl]-N-tert-butylacetamide]
10 to 1000	CCNC(=O)C(c1ccc2nc(N)nc(C(=O)N3Cc4ccccc4C3)c2c1)C(C)CC (stereo not drawn) [Compound A47, 2-[2-Amino-4-(isoindoline-2-carbonyl)quinazolin-6-yl]-N-ethyl-3-methylpentanamide]
10 to 1000	CC(C)(C(=O)NCC(N)=O)c1ccc2nc(N)nc(C(=O)N3Cc4ccccc4C3)c2c1 [Compound A39, 2-[2-Amino-4-(isoindoline-2-carbonyl)quinazolin-6-yl]-N-(2-amino-2-oxoethyl)-2-methylpropanamide]
1000 to 10000	CNC(=O)Cc1ccc2nc(N)nc(C(=O)N3Cc4ccccc4C3)c2c1 [Compound A16, 2-[2-Amino-4-(isoindoline-2-carbonyl)quinazolin-6-yl]-N-methylacetamide]
10 to 1000	CCCCC(C(=O)NCC)c1ccc2nc(N)nc(C(=O)N3Cc4ccccc4C3)c2c1 (stereo not drawn) [Compound A44, 2-[2-Amino-4-(isoindoline-2-carbonyl)quinazolin-6-yl]-N-ethylhexanamide]
1000 to 10000	CCNC(=O)C1(c2ccc3nc(N)nc(C(=O)N4Cc5ccccc5C4)c3c2)CCOCC1 [Compound A54, 1-[2-Amino-4-(isoindoline-2-carbonyl)quinazolin-6-yl]-N-ethyltetrahydropyran-4-carboxamide]
